Source: patent publication US8877814B2, “Titration package for neramexane and its use in the treatment of an inner ear disorder” (Merz Pharma GmbH & Co. KGaA, priority 2007, dated 2014)

Tests used:
[1] = tested on: patients afflicted with various degrees of hearing loss; experiment: Double blind placebo controlled pilot trial of neramexane for treatment of hearing loss; type: in vivo, human; conditions: neramexane mesylate up to 75 mg/d, compared to the placebo group
Experimental: A hearing threshold level may be defined as the average of the pure tone hearing threshold levels at testing frequencies of 0.25, 0.5, 1, 2 and 4 kHz.
The primary objective of this study is to investigate the safety and efficacy of neramexane mesylate at daily doses of up to 75 mg in the treatment of hearing loss in comparison to placebo.
Neramexane mesylate (or placebo) is uptitrated to a maximum daily dose of 75 mg, starting with a daily dose of 25 mg for one week, and increasing dosage in 25 mg steps at weekly intervals.
Treatment is started in the evening of study day 1. The daily starting dose is 25 mg neramexane mesylate per dose to be taken for 7 days at bedtime. […]
Primary Outcome • Change from baseline in hearing threshold level of left/right ear (dB) calculated as average of the pure tone hearing level threshold levels at 0.25, 0.5, 1, 2 and 4 kHz.
Secondary Outcomes • Change from baseline in high frequency hearing threshold of left/right ear (dB) calculated as average of the pure tone hearing threshold levels at 4, 6, 8 and 10 kHz • Change from baseline in individual frequencies (hearing thresholds) on a pure tone audiogram (air conduction) • Number of Responder • Patient-reported outcome on a 11-point Likert-Scale (0=hearing is not a problem, 10=hearing is a problem as much as possible) • Change in hearing impairment based on the hearing threshold level: […]

[2] = target: α 9/α 10 nicotinic (Rattus norvegicus, UniProt P43144+Q9JLB5); conditions: Plazas et al., Eur J. Pharmacol. 2007; cited from earlier work
[3] = tested on: 5-HT3 receptors; conditions: cited from earlier work
[4] = tested on: subjects with subjective tinnitus of at least moderate severity; experiment: Double blind placebo controlled pilot trial of neramexane for tinnitus: treatment emergent adverse events leading to drop-out
Experimental: The primary objective of this study was to compare the efficacy, tolerability and safety of neramexane mesylate at three different dosages (25, 50 or 75 mg/d) with placebo in subjects with subjective tinnitus of at least moderate severity.
In a double-blind, multicenter, randomized, placebo-controlled, parallel-group study, the efficacy of neramexane in subjects suffering from tinnitus of at least moderate severity was assessed. Approximately 100 patients, who fulfilled particular inclusion criteria and met none of particular exclusion criteria, were randomized to each of four double-blind treatment groups (neramexane mesylate 25, 50, 75 mg/d or placebo), resulting in approximately 400 patients in total.
The double-blind, 16-week treatment period consisted of a 4-week uptitration period and a 12-week fixed-dose treatment period at unchanged maintenance b.i.d. dosing. In case of poor tolerability, however, the investigator could consider a dose reduction by 25 mg/d (or placebo, respectively). […] In total, this study involved seven study visits: screening, baseline, and at the end of weeks 4, 8, 12, 16, and 20. (Participants received either neramexane mesylate (e.g. 50 mg, as 25 mg immediate release tablets given twice daily) or placebo twice daily for 16 weeks. Neramexane mesylate was uptitrated in weekly steps of 12.5 or 25 mg during a 4-week uptitration period preceding the fixed-dose 12-week treatment period. Treatment was followed by a four week follow-up period.)
Neramexane mesylate immediate release tablets (12.5 mg and 25 mg) and matching placebo tablets were administered as film coated tablets.
Study medication was dispensed at Visit 2 (baseline, day 0). Each patient received one blister box containing 5 blister cards (including one reserve blister) of double-blind study medication (i.e., 32 tablets). Subjects were instructed to take 2 tablets twice daily (4 tablets/d), beginning the day after dispensing of the study medication, until they returned for their next study visit (Visit 3). For those subjects assigned to receive active medication, some placebo tablets were incorporated into the dosing regimen to ensure blinding during the uptitration period. The target fixed-maintenance dose of 25, 50, or 75 mg/d was administered starting with the fifth week of double-blind treatment and was continued throughout the study. At each of the subsequent visits (Visits 3, 4, and 5, corresponding to end of week 4, 8 and 12) patients received another blister box containing 5 blister cards for the 4 week intervals, with double-blind medication for the intervening treatment period until the next study visit.
In case of poor tolerability the investigator could consider a dose reduction of 25 mg/d by omitting the bigger tablet in the morning which constituted an effective dose reduction only in the 75 mg/d and 50 mg/d neramexane mesylate groups. After omitting the bigger tablet (25 mg or placebo, respectively) of the morning dose, these patients could then continue the course of the study as scheduled, while receiving only one smaller tablet as the morning dose (12.5 mg or placebo, respectively) and 2 tablets of different sizes (12.5 mg, 25 mg or placebo, respectively) as the evening dose. The dose was to be kept stable until the end of the study.

α 9/α 10 nicotinic, sequence (P43144 26-479): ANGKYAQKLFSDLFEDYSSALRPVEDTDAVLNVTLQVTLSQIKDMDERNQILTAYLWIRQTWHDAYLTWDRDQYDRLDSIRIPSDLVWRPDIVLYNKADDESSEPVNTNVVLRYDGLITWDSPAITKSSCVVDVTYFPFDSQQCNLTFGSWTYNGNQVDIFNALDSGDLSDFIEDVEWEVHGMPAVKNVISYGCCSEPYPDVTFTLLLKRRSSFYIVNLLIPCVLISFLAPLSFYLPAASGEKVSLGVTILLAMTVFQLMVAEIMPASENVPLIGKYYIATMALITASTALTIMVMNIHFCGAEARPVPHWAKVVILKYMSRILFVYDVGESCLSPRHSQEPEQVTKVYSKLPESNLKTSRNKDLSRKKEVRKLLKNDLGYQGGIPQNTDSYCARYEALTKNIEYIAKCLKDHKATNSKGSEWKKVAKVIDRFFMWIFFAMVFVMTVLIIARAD
α 9/α 10 nicotinic, sequence (Q9JLB5 25-447): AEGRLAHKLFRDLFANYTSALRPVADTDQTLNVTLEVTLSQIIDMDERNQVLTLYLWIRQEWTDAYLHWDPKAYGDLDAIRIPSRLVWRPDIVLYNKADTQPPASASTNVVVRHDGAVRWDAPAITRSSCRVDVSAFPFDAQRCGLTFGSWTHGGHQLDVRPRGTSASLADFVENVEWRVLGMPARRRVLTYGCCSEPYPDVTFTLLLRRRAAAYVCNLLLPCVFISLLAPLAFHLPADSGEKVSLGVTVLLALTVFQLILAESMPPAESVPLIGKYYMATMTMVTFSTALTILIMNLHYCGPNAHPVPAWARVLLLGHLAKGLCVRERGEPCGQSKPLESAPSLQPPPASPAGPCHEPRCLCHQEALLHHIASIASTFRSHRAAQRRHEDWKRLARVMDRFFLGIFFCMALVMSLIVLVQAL

In the case of CC1(C)CC(C)(C)CC(C)(N)C1 [Neramexane, 1-amino-1,3,3,5,5-pentamethylcyclohexane], the “Primary outcome: change from baseline in hearing threshold level” value [1] is listed as “improvement”, the “Secondary outcomes (e.g. change from baseline in different frequencies on a pure tone audiogram)” value [1] is listed as “improvement” and the “activity at the α 9/α 10 nicotinic receptors” value [2] is listed as “exhibit activity”. The “activity at 5-HT3 receptors” value [3] was “exhibit activity”, the “Any adverse event leading to drop-out, % of patients” value ([4]; 25 mg/d, N = 108, EFS) was “(8.3) %” and the “Any adverse event leading to drop-out, n (number of patients)” value (from here on “Any adverse event leading to drop-out, n”) ([4]; 25 mg/d, N = 108, EFS) was 9. For the same molecule, the “Cardiovascular disorder leading to drop-out, % of patients” value ([4]; 25 mg/d, N = 108, EFS) was “(0.0) %”, the “Cardiovascular disorder leading to drop-out, n (number of patients)” value ([4]; 25 mg/d, N = 108, EFS) was 0 and the “Depression leading to drop-out, % of patients” value ([4]; 25 mg/d, N = 108, EFS) was “(0.9) %”. The “Depression leading to drop-out, n (number of patients)” value (shortened to “Depression leading to drop-out, n”) ([4]; 25 mg/d, N = 108, EFS) was 1, the “Dizziness leading to drop-out, % of patients” value ([4]; 25 mg/d, N = 108, EFS) was “(1.9) %” and the “Dizziness leading to drop-out, n (number of patients)” value (“Dizziness leading to drop-out, n” for short) ([4]; 25 mg/d, N = 108, EFS) was 2. The “Fatigue leading to drop-out, % of patients” value ([4]; 25 mg/d, N = 108, EFS) was “(0.0) %”, the “Fatigue leading to drop-out, n (number of patients)” value (shortened to “Fatigue leading to drop-out, n”) ([4]; 25 mg/d, N = 108, EFS) was 0 and the “Headache leading to drop-out, % of patients” value ([4]; 25 mg/d, N = 108, EFS) was “(0.0) %”. The “Headache leading to drop-out, n (number of patients)” value (from here on “Headache leading to drop-out, n”) ([4]; 25 mg/d, N = 108, EFS) was 0, the “Hyperhidrosis leading to drop-out, % of patients” value ([4]; 25 mg/d, N = 108, EFS) was “(0.0) %” and the “Hyperhidrosis leading to drop-out, n (number of patients)” value (from here on “Hyperhidrosis leading to drop-out, n”) ([4]; 25 mg/d, N = 108, EFS) was 0. For the same molecule, the “Nausea leading to drop-out, % of patients” value ([4]; 25 mg/d, N = 108, EFS) was “(0.0) %”, the “Nausea leading to drop-out, n (number of patients)” value (shortened to “Nausea leading to drop-out, n”) ([4]; 25 mg/d, N = 108, EFS) was 0 and the “Paresthesia leading to drop-out, % of patients” value ([4]; 25 mg/d, N = 108, EFS) was “(0.0) %”. The “Paresthesia leading to drop-out, n (number of patients)” value (“Paresthesia leading to drop-out, n” for short) ([4]; 25 mg/d, N = 108, EFS) was 0, the “Tinnitus leading to drop-out, % of patients” value ([4]; 25 mg/d, N = 108, EFS) was “(1.9) %” and the “Tinnitus leading to drop-out, n (number of patients)” value (“Tinnitus leading to drop-out, n” for short) ([4]; 25 mg/d, N = 108, EFS) was 2. The “Vertigo leading to drop-out, % of patients” value ([4]; 25 mg/d, N = 108, EFS) was “(0.0) %”, the “Vertigo leading to drop-out, n (number of patients)” value (from here on “Vertigo leading to drop-out, n”) ([4]; 25 mg/d, N = 108, EFS) was 0 and the “Visual acuity reduced leading to drop-out, % of patients” value ([4]; 25 mg/d, N = 108, EFS) was “(0.0) %”. The “Visual acuity reduced leading to drop-out, n (number of patients)” value ([4]; 25 mg/d, N = 108, EFS) was 0, the “Any adverse event leading to drop-out, % of patients” value ([4]; 50 mg/d, N = 107, EFS) was “(21.5) %” and the “Any adverse event leading to drop-out, n” value ([4]; 50 mg/d, N = 107, EFS) was 23. The “Cardiovascular disorder leading to drop-out, % of patients” value ([4]; 50 mg/d, N = 107, EFS) was “(1.9) %”, the “Cardiovascular disorder leading to drop-out, n (number of patients)” value ([4]; 50 mg/d, N = 107, EFS) was 2 and the “Depression leading to drop-out, % of patients” value ([4]; 50 mg/d, N = 107, EFS) was “(1.9) %”. The “Depression leading to drop-out, n” value ([4]; 50 mg/d, N = 107, EFS) was 2, the “Dizziness leading to drop-out, % of patients” value ([4]; 50 mg/d, N = 107, EFS) was “(5.6) %” and the “Dizziness leading to drop-out, n” value ([4]; 50 mg/d, N = 107, EFS) was 6. For the same molecule, the “Fatigue leading to drop-out, % of patients” value ([4]; 50 mg/d, N = 107, EFS) was “(1.9) %”, the “Fatigue leading to drop-out, n” value ([4]; 50 mg/d, N = 107, EFS) was 2 and the “Headache leading to drop-out, % of patients” value ([4]; 50 mg/d, N = 107, EFS) was “(0.9) %”. For the same molecule, the “Headache leading to drop-out, n” value ([4]; 50 mg/d, N = 107, EFS) was 1, the “Hyperhidrosis leading to drop-out, % of patients” value ([4]; 50 mg/d, N = 107, EFS) was “(0.0) %” and the “Hyperhidrosis leading to drop-out, n” value ([4]; 50 mg/d, N = 107, EFS) was 0. The “Nausea leading to drop-out, % of patients” value ([4]; 50 mg/d, N = 107, EFS) was “(1.9) %”, the “Nausea leading to drop-out, n” value ([4]; 50 mg/d, N = 107, EFS) was 2 and the “Paresthesia leading to drop-out, % of patients” value ([4]; 50 mg/d, N = 107, EFS) was “(1.9) %”. For the same molecule, the “Paresthesia leading to drop-out, n” value ([4]; 50 mg/d, N = 107, EFS) was 2, the “Tinnitus leading to drop-out, % of patients” value ([4]; 50 mg/d, N = 107, EFS) was “(0.0) %” and the “Tinnitus leading to drop-out, n” value ([4]; 50 mg/d, N = 107, EFS) was 0. For the same molecule, the “Vertigo leading to drop-out, % of patients” value ([4]; 50 mg/d, N = 107, EFS) was “(3.7) %”, the “Vertigo leading to drop-out, n” value ([4]; 50 mg/d, N = 107, EFS) was 4 and the “Visual acuity reduced leading to drop-out, % of patients” value ([4]; 50 mg/d, N = 107, EFS) was “(0.0) %”. For the same molecule, the “Visual acuity reduced leading to drop-out, n (number of patients)” value ([4]; 50 mg/d, N = 107, EFS) was 0, the “Any adverse event leading to drop-out, % of patients” value ([4]; 75 mg/d, N = 102, EFS) was “(28.4) %” and the “Any adverse event leading to drop-out, n” value ([4]; 75 mg/d, N = 102, EFS) was 29. For the same molecule, the “Cardiovascular disorder leading to drop-out, % of patients” value ([4]; 75 mg/d, N = 102, EFS) was “(0.0) %”, the “Cardiovascular disorder leading to drop-out, n (number of patients)” value ([4]; 75 mg/d, N = 102, EFS) was 0 and the “Depression leading to drop-out, % of patients” value ([4]; 75 mg/d, N = 102, EFS) was “(0.0) %”. For the same molecule, the “Depression leading to drop-out, n” value ([4]; 75 mg/d, N = 102, EFS) was 0, the “Dizziness leading to drop-out, % of patients” value ([4]; 75 mg/d, N = 102, EFS) was “(14.7) %” and the “Dizziness leading to drop-out, n” value ([4]; 75 mg/d, N = 102, EFS) was 15. The “Fatigue leading to drop-out, % of patients” value ([4]; 75 mg/d, N = 102, EFS) was “(2.0) %”, the “Fatigue leading to drop-out, n” value ([4]; 75 mg/d, N = 102, EFS) was 2 and the “Headache leading to drop-out, % of patients” value ([4]; 75 mg/d, N = 102, EFS) was “(2.0) %”. For the same molecule, the “Headache leading to drop-out, n” value ([4]; 75 mg/d, N = 102, EFS) was 2, the “Hyperhidrosis leading to drop-out, % of patients” value ([4]; 75 mg/d, N = 102, EFS) was “(2.0) %” and the “Hyperhidrosis leading to drop-out, n” value ([4]; 75 mg/d, N = 102, EFS) was 2. For the same molecule, the “Nausea leading to drop-out, % of patients” value ([4]; 75 mg/d, N = 102, EFS) was “(2.0) %”, the “Nausea leading to drop-out, n” value ([4]; 75 mg/d, N = 102, EFS) was 2 and the “Paresthesia leading to drop-out, % of patients” value ([4]; 75 mg/d, N = 102, EFS) was “(0.0) %”. For the same molecule, the “Paresthesia leading to drop-out, n” value ([4]; 75 mg/d, N = 102, EFS) was 0, the “Tinnitus leading to drop-out, % of patients” value ([4]; 75 mg/d, N = 102, EFS) was “(1.0) %” and the “Tinnitus leading to drop-out, n” value ([4]; 75 mg/d, N = 102, EFS) was 1. The “Vertigo leading to drop-out, % of patients” value ([4]; 75 mg/d, N = 102, EFS) was “(2.9) %”, the “Vertigo leading to drop-out, n” value ([4]; 75 mg/d, N = 102, EFS) was 3 and the “Visual acuity reduced leading to drop-out, % of patients” value ([4]; 75 mg/d, N = 102, EFS) was “(2.0) %”. For the same molecule, the “Visual acuity reduced leading to drop-out, n (number of patients)” value ([4]; 75 mg/d, N = 102, EFS) was 2.
